Assay results taken from patent publication US20100028259A1, “USE OF ORGANIC CATION TRANSPORTERS FOR CANCER DIAGNOSIS AND THERAPY” (The Regents of the University of California, priority 2006, published 2010).

How the values were obtained:
[1] = tested on: MDCK-hOCT1 cells; test: Platinum-DNA adduct formation in MDCK-hOCT1 cells; type: cell-based, canine
Protocol: (§1) After incubation at 37° C. and 5% CO2 for 2 hours, the cells were washed with ice-cold PBS three times and harvested. The genomic DNA was isolated from the cells and the platinum content associated with DNA was determined by ICP-MS and normalized for DNA content. Data are expressed as mean±SD from a typical experiment performed in triplicate. Two independent experiments were conducted and similar results were obtained.
After incubation, the cells were washed with ice-cold PBS three times and harvested. Genomic DNA was isolated from the harvested cells and the DNA-associated platinum content was determined by ICP-MS and normalized for the DNA content. Data are expressed as mean±SD of three measurements.
(§2) The platinum content associated with genomic DNA was determined as described in Samimi et al., Clin. Cancer Res., 10:4661-4669 (2004) with some modifications. Briefly, the cells were grown in 100 mm×20 mm dishes in the culture medium without any antibiotics to over 90% confluence. For HEK 293 cells, poly-D-lysine coated dishes were used. Then, the cells were incubated in the culture medium containing the specified concentrations of the platinum-based compounds at 37° C. in 5% CO2 for 2 hours (or 25 min as specified). In some experiments, phosphate buffer (PB: 1.06 mM KH2PO4, 2.97 mM Na2HPO4, pH 7.4) containing 155 mM NaCl (PB—Cl buffer) or 103 mM Na2SO4 (PB—SO4 buffer) was used instead of the culture medium as specified. For the OCT inhibitor study, the incubation medium (buffer) also contained disopyramide or cimetidine). If PB—Cl or PB—SO4 buffer was used, the cells were washed with the same buffer once before drug incubation. After incubation, the cells were washed with ice-cold PBS, scraped, and pelleted. Genomic DNA was isolated from the cell pellets using the Wizard® Genomic DNA Purification Kit (Promega, Madison, Wis.) following the manufacturer's instructions. Briefly, the cells were lysed with Nuclei Lysis Solution. After RNA digestion and protein precipitation, the lysates were centrifuged and the resulting supernatant was aliquoted. The genomic DNA prepared from two different aliquots of the supernatant was used for platinum and DNA content determination, respectively. For the determination of platinum, the DNA samples were treated with 70% nitric acid at 65° C. and diluted in the same way as described above. The platinum content was analyzed using ICP-MS and the DNA content was measured by absorption spectroscopy.

[2] = tested on: HEK-hOCT3 cells; test: MTT drug sensitivity assay in HEK-hOCT3 cells; type: cell-based, human
Protocol: Cytotoxicity of the platinum-based compounds was measured by MTT (thiazolyl blue tetrazolium bromide) assay. Cells were seeded in 100 μl of the culture medium without any antibiotics in 96-well plates at a predetermined cell density. For HEK 293 cells, poly-D-lysine coated plates were used. […] For the OCT inhibitor studies, the inhibitors (i.e., disopyramide or cimetidine) were added to the medium at a specified concentration immediately before the addition of the platinum-based compounds. After incubation for a specified time period, the drug-containing medium was replaced with fresh, drug-free medium and the incubation was continued for a total of 72 hours (start from the addition of platinum-based compounds). Then, the MTT assay was performed similarly as described in Alley et al., Cancer Res., 48:589-601 (1988). […] The maximal cell growth was the cell growth in the medium without any platinum-based compounds; C is the concentration of the platinum-based compound, and γ is the slope factor.
Briefly, the cells were seeded in 96-well plates at a density of 5,000 cells/well for the transfected MDCK cells or 12,000 cells/well for the transfected HEK 293 cells. The platinum-based drugs were added on the following day. After the specified time periods of drug exposure, the drug-containing medium was replaced with fresh, drug-free medium, and the incubation was continued for a total of 72 hours (start from the time when the drug was added). After incubation, the cell growth was determined by an MTT assay. Data are expressed as mean±SD from 3 to 6 independent experiments with each performed in quadruplicate. The resistance factor (RF) was defined as the ratio of the mean IC50 value in the MOCK cells to that in the OCT-transfected cells.

[3] = tested on: HEK-hOCT2 cells; test: Platinum-DNA adduct formation in HEK-hOCT2 cells; type: cell-based, human; conditions: 2-hr exposure
Protocol: as §1, §2

[4] = tested on: MDCK-MOCK cells; test: Cellular accumulation of platinum in MDCK-MOCK cells (ICP-MS); type: in vitro ADME, canine; conditions: 2-hr exposure
Protocol: (§3) For the inhibitor studies, the incubation medium also contained disopyramide (150 μM). […] For the inhibitor studies, the incubation medium also contained cimetidine (1.5 mM). […] After drug exposure, the cells were washed with ice-cold PBS three times and harvested by scraping and centrifugation. The cell-associated platinum was determined by ICP-MS and normalized for protein content. Data are expressed as mean±SD from a single experiment performed in triplicate. Experiments were replicated for OCT1 and OCT2, and similar results were obtained.
(§4) The cellular accumulation of platinum was determined as described in Holzer et al., Mol. Pharmacol., 66:817-823 (2004) with some modifications. Briefly, the cells were grown in 100 mm×20 mm dishes in the culture medium without any antibiotics to over 90% confluence. For HEK 293 cells, poly-D-lysine coated dishes were used. For platinum accumulation, the cells were incubated in the culture medium containing the indicated concentrations of the platinum compounds at 37° C. in 5% CO2 for 2 hr unless specified. After incubation, the dishes were immediately placed on ice and the cells were washed with 6 ml of ice-cold PBS for three times and collected with a rubber policeman. The cell pellets were obtained by centrifugation at 400×g and at 4° C. for 15 min. For the OCT inhibitor studies, the incubation medium also contained the indicated inhibitor (i.e., disopyramide or cimetidine) in addition to the platinum-based compounds. The resulting cell pellets were then dissolved into 200 μl of 70% nitric acid at 65° C. for at least 2.5 hours, and then distilled water containing 10 ppb of iridium (Sigma) and 0.1% Triton X-100 was added to the samples to dilute nitric acid to 7%. The platinum content was measured by inductively plasma coupled mass spectrometry (ICP-MS) in the Analytical Facility at the University of California at Santa Cruz (Santa Cruz, Calif.). Cell lysates from a set of identical cultures were used for BCA protein assay.

[5] = tested on: MDCK-hOCT1 cells; test: Cellular accumulation of platinum in MDCK-hOCT1 cells (ICP-MS); type: in vitro ADME, canine; conditions: 2-hr exposure
Protocol: as §3, §4

[6] = 2-hr exposure, disopyramide 150 μM

O=C1[O][Pt]2([NH][C@@H]3CCCC[C@H]3[NH]2)[O]C1=O [oxaliplatin]
rb in MDCK-hOCT1 ([1]; 20 μM, PB—Cl, 25 min): 3.08±0.41×10^−6
rb in MDCK-hOCT1 ([1]; 20 μM, PB—SO4, 25 min): 1.31±0.29×10^−6
Pt-DNA adduct level in MDCK-hOCT1 ([1]; 20 μM, chloride free buffer PB—SO4, 25 min): 0.00398±0.00089 pmol/μg DNA
DNA-associated platinum level in MDCK-hOCT1 ([1]; 20 μM, chloride-containing buffer PB—Cl, 25 min): 0.00933±0.00124 pmol/μg DNA
platinum-DNA adduct level in MDCK-hOCT1, disopyramide-treated [1, 6]: 0.0217±0.0019 pmol/μg DNA
rb in MDCK-hOCT1, disopyramide-treated [1, 6]: 7.16±0.63×10^−6
platinum-DNA adduct level in MDCK-hOCT1 ([1]; 2-hr exposure, oxaliplatin 10 μM, culture medium): 0.0457±0.0011 pmol/μg DNA
IC50 ([2]; drug exposure 7 hour): 2220 ± 410 nM
IC50 ([2]; drug exposure 24 hour): 620 ± 190 nM
IC50 ([2]; drug exposure 72 hour): 690 ± 190 nM
platinum-DNA adduct level in HEK-hOCT2, cimetidine ([3]; cimetidine 1.5 mM): 0.00216±0.00031 pmol/μg DNA
rb in HEK-hOCT2, cimetidine ([3]; cimetidine 1.5 mM): 7.13±1.02×10^−7
platinum-DNA adduct level in HEK-hOCT2 ([3]; oxaliplatin 0.6 μM): 0.0284±0.0020 pmol/μg DNA
rb in HEK-hOCT2 ([3]; oxaliplatin 0.6 μM): 9.37±0.66×10^−6
cellular platinum accumulation rate in MDCK-MOCK, disopyramide-treated ([4]; 3 μM, disopyramide 150 μM): 3.23±0.31 pmol/mg protein-hour
cellular platinum accumulation rate in MDCK-MOCK ([4]; drug 3 μM): 2.94±0.11 pmol/mg protein-hr
cellular platinum accumulation rate in MDCK-hOCT1, disopyramide-treated ([5]; 3 μM, disopyramide 150 μM): 4.04±0.04 pmol/mg protein-hr
cellular platinum accumulation rate in MDCK-hOCT1 ([5]; drug 3 μM): 8.53±0.52 pmol/mg protein-hr
effect of disopyramide on platinum accumulation rate in MDCK-hOCT1 ([5]; disopyramide 150 μM): two-fold decrease
